Tests used:
Format in all cases: cell-based
Settings in all cases: topical 50 μl, 6 hours after treatment, related to G3PDH messenger
[1] = system: cytokeratin 10 (K10) gene; experiment: RT-qPCR gene expression in Episkin reconstructed epidermis: cytokeratin 10
Method: (§1) The effects of the following four compositions were tested on the differentiation of Episkin® reconstructed epidermis. • A: formulation support (ethyl alcohol (3%) and water (97%)), • B: lysate (ethyl alcohol (3%), water (87%), lysate (10%)), • C: phytosphingosine salicylate (ethyl alcohol (3%), water (96.998%), phytosphingosine salicylate (0.002%)), and • D: combination in accordance with the invention=(0.002% phytosphingosine salicylate+10% lysate+ethyl alcohol (3%)+water (86.998%)).
(§2) J6 Episkin® reconstructed epidermis were placed in 12-well plates containing 2 ml of a maintenance medium and cultured at 37° C. and 5% CO2 for 24 hours. […]
(§3) These effects were characterized by analysing the expression of the cytokeratin 6B (K6B), cytokeratin 10 (K10) and involucrin (INV) genes using a real-time PCR method (quantitative PCR, qPCR) 6 hours after treatment.
(§4) The expression of the markers selected was evaluated by RT-qPCR on the messenger RNA extracted from the Episkin® reconstructed epidermis of each treatment (the duplicates were pooled before RNA extraction) 6, 24 and 48 hours after treatment. […]
(§5) The incorporation of fluorescence into the amplified DNA is measured continuously during the PCR cycles. This system makes it possible to obtain curves of the fluorescence measurement as a function of the PCR cycles and thus to evaluate a relative expression value for each marker. […]

[2] = system: cytokeratin 6B (K6B) gene; experiment: RT-qPCR gene expression in Episkin reconstructed epidermis: cytokeratin 6B
Method: as §1, §2, §3, §4, §5

involucrin (INV) gene = experiment: RT-qPCR gene expression in Episkin reconstructed epidermis: involucrin
Method: as §1, §2, §3, §4, §5

With “phytosphingosine salicylate [Composition C]” the K10 expression [1] was 122 % of the untreated control, the K6B expression [2] was 158 % of the untreated control and the INV expression (involucrin (INV) gene) was 146 % of the untreated control.

Reference: patent publication US8709454B2, “Combination of a microorganism and a phytosphingosine derivative, composition, methods of use” (L'Oreal, priority 2009, dated 2014)
